Experimental data from patent US11564975B2, “Use of GHRP-6 as late cardioprotective and cardiac restoration medicament” (Centro de Ingeniería Genética y Biotecnología, priority 2018, dated 2023).
Several values for one entry are separate records, joined by “and”; a condition that tells them apart may be missing. Equal values may be shown once. Entries after “also recorded” stand apart in the source; their conditions may differ.

How the values were obtained:
Grade IV heart failure = test: Compassionate treatment of patients with Grade IV heart failure awaiting heart transplantation; format: in vivo, human; details: for Cardiac output (L/m) / LVEF % / Oxygen consumption / Systolic volume: individual patients
Source text: This is a cohort of 7 patients, who received the compassionate treatment with GHRP-6, under informed consent. All patients were in advanced heart failure, evaluated as functional class grade IV, according to the scale of the New York Heart Association. These patients were hospitalized in specialized cardiology services of two hospitals, and the ischemic heart disease, the idiopathic dilated cardiomyopathy, the heart valve disease, and the postpartum dilated cardiomyopathy were considered as the underlying condition for heart failure. […] They had minimal effort dyspnea, inability to adequately fulfill the 6 minutes' walk test, and instability in fluid balance and renal function, despite the diet control and the treatment with diuretics, the restriction of salt and the monitoring body weight.
All patients received between 50 and 200 μg of GHRP-6/kg body weight, two or three times a day, according to medical criteria, by intravenous route. All treatments were performed while the patients were awaiting for heart transplantation. The treatment period with GHRP-6 was between 25 days and 30 days per cycle.
A cycle of treatment with GHRP-6 was performed every three months. The maximum was three cycles. All patients were maintained with previous medical treatments, based on digital, diuretics, renin-angiotensin-aldosterone axis inhibitors (neurohormones) and pressor amines when required.

[1] = system: AMI with a ST Segment elevation; test: AMI in pigs without reperfusion (non-reflux), permanent ligation of the circumflex artery; format: in vivo, female pigs of the Yorkshire breed
Description: (§1) The objective of the study was to evaluate, and to compare, the therapeutic impact of the late administration of GHRP-6 on functional parameters of the left ventricle, regarding the effect of the peptide acutely administered. Another objective was to assess the effect of late treatment in a group of animals in which the reperfusion was not performed.
(§2) The implementation of the AMI was performed in female pigs of the Yorkshire breed, with body weight of 22-27 kg. The anesthesia was induced with propofol, midazolam and pancuronium, by intravenous route. Under general anesthesia, obtained with a mixture of isofluorane/oxygen and nitrous oxide the ischemia was provoked. It was induced by a thoracotomy between the fifth and sixth intercostal spaces, until reaching the left circumflex artery, which was occluded by a 30 mm arterial clamping for one hour. Immediately, the record of the electrocardiogram and the heart rate was taken, every 20 seconds. At the end of 60 minutes of occlusion, the clamping was released, and so began the reperfusion phase, to complete the 10 days after ischemia. For the experimental group without reperfusion, that simulates the state called as non-reflux, a permanent ligation of the circumflex artery, with surgical thread, was performed. Both procedures, clamping and permanent ligation, induce an AMI with a ST Segment elevation. The recording of heart rate and electrocardiogram continued until the superficial suture of the thorax. The animals were sacrificed, by exsanguination, on the tenth day after the ischemia episode was induced. Under an anesthetic overdose, the determination of the area of the AMI was made, by means of the calculation of the area at risk with Evans blue.
(§3) For the echocardiographic evaluation, the pigs were previously sedated with a mixture of propofol/midazolam. A Kontron ultrasound system, Sigma 1 AC Cardio model, equipped with 3.5-7.5 MHz mechanical-cardiac sector transducers was used.
(§4) The parameters evaluated were the following: • Left Ventricle Ejection Fraction (LVEF), estimated by the Teich method. • Left Ventricle Tele-Systolic and Tele-diastolic Pressures. • Infarction Area, estimated on the area at risk (%).
(§5) Seven animals per group were used. In all groups, the animals received treatment every 12 hours, for 10 days after ischemia. The administrations of GHRP-6 or placebo were performed through a central catheter. In the case of the groups that received the peptide, it was diluted in 10 ml of physiological saline. The essence of the study was to evaluate the influence of the time of initiation of treatment on functional parameters and size of the ventricular not viable territory.

[2] = system: AMI with elevated ST segment; test: Second cohort: AMI patients with low cardiac output syndrome / cardiogenic shock, late treatment with GHRP-6; format: in vivo, human; details: for LVEF: individual patients, late treatment, echocardiography at 90 days
Description: Second cohort. Comprising 13 patients over 30 years old, of both sexes, with a diagnosis of AMI with elevated ST segment, who received percutaneous transluminal angioplasty before 12 hours of implantation of precordial pain. All these patients evolved in an unfavorable way, and with uncertain prognosis between 24 and 96 hours after a successful endoluminal reperfusion, according to the imaging criteria all were considered as TIMI grade 3.
This led to the decision of establishing an alternative treatment with GHRP-6, to try to reduce dyskinesia of the ventricular musculature, to attenuate the process of presumed stunning, to dampen hypoxia, and to rescue from death a territory of ischemic ventricular mass. The patients who implanted a reinfarction received rescue angioplasty. One of these patients died during the procedure. None of the patients met criteria for the coronary revascularization practice. In these cases, the first administration of the peptide was carried out at least after 48 hours of torpid evolution after a TIMI 3. During the treatment time, the GHRP-6 was administered intravenously, every 12 hours.

[3] = system: AMI with ST segment elevation; test: First cohort: patients with AMI with ST segment elevation, GHRP-6 immediately after angioplasty; format: in vivo, human
Description: First cohort. Comprising 19 patients over 30 years old, of both sexes, with a diagnosis of AMI with ST segment elevation, all with occlusion of the anterior descending artery, first episode, who arrived at a cardiology department before 12 hours of implantation of the precordial pain. The average door-ball time was 6 hours. All patients received primary percutaneous transluminal angioplasty, and immediately after the culprit artery flow was restored they received treatment with GHRP-6. In some patients, the treatment was performed by intra-coronary flushing, after the flow was restored. Residual lesions occupied less than 25% of the initial occlusion area, so it was considered as a TIMI 3, according to the Coronary Risk Score known as TIMI. In other cases, the first administration was performed by a central-venous route, just at the time of reperfusion, in the hemodynamic room. GHRP-6 was administered at a dose of 100 μg/kg of body weight, twice a day, for 7 days, time spent in the coronary intensive care hospital room. […]

[4] = system: AMI with a ST Segment elevation; test: AMI in pigs, one hour circumflex artery clamping followed by reperfusion; format: in vivo, female pigs of the Yorkshire breed; details: for Infarction Area (%): day 10
Description: as §1, §2, §3, §4, §5

[5] = after treatment, 50-200 μg/kg two or three times a day intravenously
[6] = Group 5: no reperfusion, 400 μg/kg every 12 h, onset one hour after the artery was permanently clamped
[7] = 30 days after PTA, 100 μg/kg twice a day for 7 days
[8] = 90 days after PTA, 100 μg/kg twice a day for 7 days
[9] = start of treatment, minutes after the PTA (baseline)
[10] = Group 2: 400 μg/kg every 12 h for 10 days, onset immediately at the beginning of reperfusion
[11] = Group 3: 400 μg/kg every 12 h, onset 72 hours after the start of reperfusion
[12] = Group 4: 400 μg/kg every 12 h, onset 5 days after the start of reperfusion

Substance: growth hormone releasing peptide-6 [GHRP-6]
- overall response to treatment (Grade IV heart failure; Grade IV heart failure patients in the transplant pool): restore cardiac, hemodynamic, ventilatory and clinical constants
- Cardiac output (L/m) (Grade IV heart failure; [5]): 4.3 L/m and 3.8 L/m and 2.9 L/m and 3.2 L/m (2×) and 3.08 L/m and 2.89 L/m
- LVEF % (Grade IV heart failure; [5]): 28% and 30% and 29% and 23% and 25% and 31% and 26%
- Oxygen consumption (Grade IV heart failure; [5]): 7.7 mL/kg/min and 7 mL/kg/min and 6.4 mL/kg/min and 7.2 mL/kg/min and 7.6 mL/kg/min and 6.6 mL/kg/min and 9.5 mL/kg/min
- Systolic volume (Grade IV heart failure; after treatment, 50-200 μg/kg two or three times a day intravenously, in mL (unit assumed)): 50 and 54 and 60 and 56 and 49 and 47 and 51
- Cardiac output (L/m) (Grade IV heart failure; before treatment): 3.2 L/m and 2.7 L/m and 1.89 L/m and 2.17 L/m and 2.41 L/m and 2.1 L/m and 1.98 L/m
- LVEF % (Grade IV heart failure; before treatment): 20% (2×) and 19% and 21% (2×) and 22% and 18%
- Oxygen consumption (Grade IV heart failure; before treatment): 4.12 mL/kg/min and 3.91 mL/kg/min and 3.05 mL/kg/min and 4.1 mL/kg/min and 3.87 mL/kg/min and 4.2 mL/kg/min and 3.63 mL/kg/min
- Systolic volume (Grade IV heart failure; before treatment): 29 (2×) and 30 and 31 and 35 and 25 and 27
- LV telediastolic pressure (mmHg) [1, 6]: 5.1 ± 1.9 mmHg
- LV telesystolic pressure (mmHg) [1, 6]: 80 ± 2.6 mmHg
- LVEF % [1, 6]: 72 ± 5.5%
- Infarction Area (%) ([1]; Group 5: no reperfusion, 400 μg/kg every 12 h, onset one hour after the artery was permanently clamped, day 10): 36.1 ± 2.8%
- reduction of the area of ventricular death ([1]; no reperfusion): 12%
- LVEF difference with baseline conditions ([1]; non-reflux group, without reperfusion): 9%
- LVEF %. Mean ± SD ([2]; Cohort 2, late treatment, 90 days after treatment): 50.8 ± 5.34%
- interval to suspension of vasopressor amines ([2]; after start of peptide treatment): ~96 h
- LVEF ([2]; 100 μg/kg every 12 hours): LVEF of 63%; also recorded: LVEF of 48%; also recorded: LVEF of 50%; also recorded: LVEF of 52%; also recorded: LVEF of 56%; also recorded: LVEF of 45%
- LVEF ([2]; 200 μg/kg every 12 hours): LVEF of 47%; also recorded: LVEF of 51%; also recorded: LVEF of 46%
- patients in whom suspension of vasopressor amines was achieved ([2]; patients evaluated, after start of peptide treatment): 8 out of 10
- surviving patients of the 13 critical patients ([2]; second cohort): 12
- LVEF % [3, 7]: 51 ± 8.6%
- SPWT (mm) [3, 7]: 11.6 ± 0.7 mm
- SSF % [3, 7]: 35 ± 6.5%
- SST (mm) [3, 7]: 10.3 ± 1.6 mm
- Telediastolic volumen [3, 7]: 87 ± 11 mL
- Telesystolic volume [3, 7]: 65 ± 23 mL
- LVEF % [3, 8]: 57 ± 6.6%
- SPWT (mm) [3, 8]: 11.3 ± 1.8 mm
- SSF % [3, 8]: 42 ± 9.6%
- SST (mm) [3, 8]: 10.7 ± 1 mm
- Telediastolic volumen [3, 8]: 111 ± 16 mL
- Telesystolic volume [3, 8]: 49 ± 8 mL
- LVEF %. Mean ± SD ([3]; Cohort 1, acute treatment, 90 days after treatment): 57.0 ± 6.61%
- clinical evolution of the patients ([3]; first cohort, GHRP-6 after successful angioplasty (TIMI 3)): favorable evolution, without further important complications; also recorded: progressive improvement over time
- LVEF % [3, 9]: 38 ± 5.9%
- SSF % [3, 9]: 27 ± 2.6%
- Telediastolic volumen [3, 9]: 81 ± 14 mL
- Telesystolic volume [3, 9]: 77 ± 12 mL
- SPWT (mm) ([3]; start of treatment, minutes after the PTA (baseline), echocardiography): 10.1 ± 2 mm
- LV telediastolic pressure (mmHg) [4, 10]: 4.6 ± 1.1 mmHg
- LV telesystolic pressure (mmHg) [4, 10]: 80 ± 2.2 mmHg
- LVEF % [4, 10]: 80 ± 2.5%
- Infarction Area (%) [4, 10]: 31.6 ± 5.2%
- LV telediastolic pressure (mmHg) [4, 11]: 4.4 ± 1.6 mmHg
- LV telesystolic pressure (mmHg) [4, 11]: 81 ± 3.0 mmHg
- LVEF % [4, 11]: 77 ± 4.1%
- Infarction Area (%) [4, 11]: 35.4 ± 6.4%
- LV telediastolic pressure (mmHg) [4, 12]: 5.2 ± 0.8 mmHg
- LV telesystolic pressure (mmHg) [4, 12]: 77 ± 3.1 mmHg
- LVEF % [4, 12]: 60 ± 6.6%
- Infarction Area (%) [4, 12]: 37.0 ± 4.3%
- diastolic pressure compared to the placebo group ([4]; all groups that received GHRP-6, regardless of when treatment started): significant reduction
- LVEF rescued ([4]; medicated from 5 days after the ischemic event, versus placebo): 22%
- decline of LVEF compared to baseline physiological conditions ([4]; start of treatment on the fifth day): 21%
- infarct size effect: treatment in parallel to reperfusion versus started 72 hours later ([4]; statistical comparison of Groups 2 and 3): no significant statistically differences
- ventricular territory (area at risk) rescued from death ([4]; treatment initiated on the 5th day after ischemia): 8%
- reduction of the size of myocardial infarction in comparison to placebo ([4]; treatment started 72 hours after reperfusion): ~13%
